Data on 20 molecules can be found in PubChem BioAssay AID328 (DTP/NCI, 2004).

The experiment concerns BDF1 mice, P388 leukemia ip, median survival T/C. The experiment can be described thus: NCI In Vivo Anticancer Drug Screen. Data for tumor model P388 Leukemia (intraperitoneal) in B6D2F1 (BDF1) mice. The settings on record: endpoint: median survival time, higher = longer survival. In short, it runs like this: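 Read-out is survival of treated animals expressed relative to the vehicle group, as a T/C ratio.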

Setting [1] is: dose: 100.0 mg/kg/injection, schedule: Q04DX003 (ip), vehicle: saline with Tween-80.
[2] abbreviates: dose: 400.0 mg/kg/injection, schedule: Q04DX003 (ip), vehicle: saline with Tween-80.
The mark [3] stands for this setting: dose: 50.0 mg/kg/injection, schedule: Q01DX009 (ip), vehicle: saline with Tween-80.
Where [4] appears, read: dose: 100.0 mg/kg/injection, schedule: Q01DX009 (ip), vehicle: saline with Tween-80.
[5] abbreviates: dose: 200.0 mg/kg/injection, schedule: Q01DX009 (ip), vehicle: saline with Tween-80.
Where [6] appears, read: dose: 100.0 mg/kg/injection, schedule: Q01DX001 (ip), vehicle: saline with Tween-80.
[7] abbreviates: dose: 400.0 mg/kg/injection, schedule: Q01DX009 (ip), vehicle: saline with Tween-80.
Setting [8] is: dose: 200.0 mg/kg/injection, schedule: Q04DX003 (ip), vehicle: saline with Tween-80.
[9] abbreviates: dose: 100.0 mg/kg/injection, schedule: Q04DX003 (ip), vehicle: saline.
Setting [10] is: dose: 200.0 mg/kg/injection, schedule: Q04DX003 (ip), vehicle: saline.
[11] abbreviates: dose: 400.0 mg/kg/injection, schedule: Q04DX003 (ip), vehicle: saline.

“And” between values parts separate entries of the source, which are not always exact repeats. Identical values can stand only once. Toxic doses and inconclusive results are not listed.

As to `CC1=C2CC(C)(C)/C=C\C(=O)/C(C)=C\C3=C[C@H](C)C[C@]3(O2)C1=O`, the T/C runs as follows: (dose: 0.5 mg/kg/injection, schedule: Q01DX010 (ip), vehicle: carboxymethylcellulose (CMC)) 100 % of control; (dose: 1.0 mg/kg/injection, schedule: Q01DX010 (ip), vehicle: carboxymethylcellulose (CMC)) 100 % of control; (dose: 2.0 mg/kg/injection, schedule: Q01DX010 (ip), vehicle: carboxymethylcellulose (CMC)) 100 % of control; (dose: 4.0 mg/kg/injection, schedule: Q01DX010 (ip), vehicle: carboxymethylcellulose (CMC)) 104 % of control; (dose: 8.0 mg/kg/injection, schedule: Q01DX010 (ip), vehicle: carboxymethylcellulose (CMC)) 95 % of control.

As for `NC(=S)N1N=C(c2cccc([N+](=O)[O-])c2)CCC1=O`, the T/C is, setting by setting: under setting [1], 100 % of control; under setting [2], 100 % of control.

With `CC1(C)OC2(C)CCC1C(O)C2N1CCOCC1` (stereo not drawn), the T/C is, setting by setting: (dose: 50.0 mg/kg/injection, schedule: Q01DX005 (ip), vehicle: saline with Tween-80) 106 % of control; (dose: 100.0 mg/kg/injection, schedule: Q01DX005 (ip), vehicle: saline with Tween-80) 106 % of control; (dose: 200.0 mg/kg/injection, schedule: Q01DX005 (ip), vehicle: saline with Tween-80) 101 % of control.

Consider `CC(C)(C)NC(=S)N/N=C/c1cc(Cl)cc(Cl)c1O`, for which the T/C reads like this: (dose: 1.56 mg/kg/injection, schedule: Q01DX009 (ip), vehicle: saline with Tween-80) 94 % of control; (dose: 3.12 mg/kg/injection, schedule: Q01DX009 (ip), vehicle: saline with Tween-80) 100 % of control; (dose: 6.25 mg/kg/injection, schedule: Q01DX009 (ip), vehicle: saline with Tween-80) 99 % of control.

As for `CC(C)NC(=O)c1ccccc1Sc1ccccc1`, the T/C was 100 % of control under setting [3], 106 % of control under setting [4] and 108 % of control under setting [5].

For the molecule `N/N=C(/c1ccccc1)c1nc(-c2ccccc2)n[nH]c1=O`, the T/C runs as follows: under setting [3], 111 % of control; under setting [4], 106 % of control; under setting [5], 112 % of control.

`CCOC(=O)c1cc[nH]c1CC(=O)NCc1ccccc1`: the T/C under setting [6] was 97 % of control; the T/C (dose: 200.0 mg/kg/injection, schedule: Q01DX001 (ip), vehicle: saline with Tween-80) was 118 % of control; the T/C (dose: 400.0 mg/kg/injection, schedule: Q01DX001 (ip), vehicle: saline with Tween-80) was 103 % of control.

In the case of `CC1C[N+](C)(C)NC1=O` (stereo not drawn), the T/C reads like this: (dose: 50.0 mg/kg/injection, schedule: Q01DX001 (ip), vehicle: saline) 100 % of control; (dose: 200.0 mg/kg/injection, schedule: Q01DX001 (ip), vehicle: saline) 100 % of control.

Regarding `CN1NCc2cncnc21`, the T/C under setting [3] is 90 % of control, the T/C under setting [4] was 99 % of control, the T/C under setting [5] was 99 % of control and the T/C under setting [7] is 90 % of control.

With `CCOC(=O)c1c(C)nc(C)c(C(=O)OCC)c1-c1cccnc1`, the T/C (dose: 12.5 mg/kg/injection, schedule: Q01DX009 (ip), vehicle: other) was 101 % of control; the T/C (dose: 25.0 mg/kg/injection, schedule: Q01DX009 (ip), vehicle: other) was 100 % of control; the T/C (dose: 50.0 mg/kg/injection, schedule: Q01DX009 (ip), vehicle: other) was 100 % of control; the T/C (dose: 100.0 mg/kg/injection, schedule: Q01DX009 (ip), vehicle: other) is 110 % of control; the T/C (dose: 200.0 mg/kg/injection, schedule: Q01DX009 (ip), vehicle: other) is 112 % of control.

As for `CN(/N=N/c1nc[nH]c1C(N)=O)C(C)(C)C`, the T/C was 117 % of control (dose: 100.0 mg/kg/injection, schedule: Q01DX009 (ip), vehicle: Klucel (hydroxypropylcellulose) (HPC)); 108 % of control (dose: 200.0 mg/kg/injection, schedule: Q01DX009 (ip), vehicle: Klucel (hydroxypropylcellulose) (HPC)); 88 % of control (dose: 400.0 mg/kg/injection, schedule: Q01DX009 (ip), vehicle: Klucel (hydroxypropylcellulose) (HPC)).

On to `O=C(NC(Cc1ccccc1)C(=O)O)OCc1ccccc1` (stereo not drawn), for which the T/C is 120 % of control under setting [4], 92 % of control under setting [1], 100 % of control under setting [8] and 107 % of control under setting [2].

For `Nc1nc(=S)c2ncn(C3OC(COC(=O)c4ccc(Cl)cc4)C(OC(=O)c4ccc(Cl)cc4)C3OC(=O)c3ccc(Cl)cc3)c2[nH]1` (stereo not drawn), the T/C is 118 % of control (dose: 132.0 mg/kg/injection, schedule: Q04DX003 (ip), vehicle: saline with Tween-80); 100 % of control under setting [5]; 122 % of control (dose: 300.0 mg/kg/injection, schedule: Q04DX003 (ip), vehicle: saline with Tween-80).

On to `Cc1cc(C(C(N)=O)c2ccccc2)ccc1N(CCCl)CCCl` (stereo not drawn), for which the T/C reads like this: (dose: 0.22 mg/kg/injection, schedule: Q01DX009 (ip), vehicle: Klucel (hydroxypropylcellulose) (HPC)) 112 % of control; (dose: 0.33 mg/kg/injection, schedule: Q01DX009 (ip), vehicle: Klucel (hydroxypropylcellulose) (HPC)) 108 % of control; (dose: 0.77 mg/kg/injection, schedule: Q01DX009 (ip), vehicle: Klucel (hydroxypropylcellulose) (HPC)) 155 % of control; (dose: 2.34 mg/kg/injection, schedule: Q01DX009 (ip), vehicle: Klucel (hydroxypropylcellulose) (HPC)) 154 % of control; (dose: 4.68 mg/kg/injection, schedule: Q01DX009 (ip), vehicle: Klucel (hydroxypropylcellulose) (HPC)) 186 % of control; (dose: 6.0 mg/kg/injection, schedule: Q04DX003 (ip), vehicle: saline) 118 % of control. Further, the T/C is 96 % of control and 205 % of control (dose: 12.37 mg/kg/injection, schedule: Q01DX009 (ip), vehicle: Klucel (hydroxypropylcellulose) (HPC)); 178 % of control (dose: 13.75 mg/kg/injection, schedule: Q04DX003 (ip), vehicle: Klucel (hydroxypropylcellulose) (HPC)); 103 % of control (dose: 18.75 mg/kg/injection, schedule: Q01DX009 (ip), vehicle: Klucel (hydroxypropylcellulose) (HPC)); 213 % of control (dose: 27.5 mg/kg/injection, schedule: Q04DX003 (ip), vehicle: Klucel (hydroxypropylcellulose) (HPC)); 110 % of control (dose: 28.12 mg/kg/injection, schedule: Q01DX009 (ip), vehicle: Klucel (hydroxypropylcellulose) (HPC)); 218 % of control (dose: 35.0 mg/kg/injection, schedule: Q04DX003 (ip), vehicle: Klucel (hydroxypropylcellulose) (HPC)). Also, the T/C reads like this: (dose: 55.0 mg/kg/injection, schedule: Q04DX003 (ip), vehicle: Klucel (hydroxypropylcellulose) (HPC)) 272 % of control and 221 % of control; (dose: 80.0 mg/kg/injection, schedule: Q04DX003 (ip), vehicle: Klucel (hydroxypropylcellulose) (HPC)) 272 % of control.

With `C/C(CC1(O)C(=O)Nc2ccccc21)=N\O` (stereo not drawn), the T/C is 100 % of control under setting [4], 95 % of control under setting [5] and 104 % of control under setting [7].

Turning to `CCOC(=O)C(C)(Br)C(=O)OCC`, the T/C is, setting by setting: (dose: 25.0 mg/kg/injection, schedule: Q04DX003 (ip), vehicle: saline) 109 % of control; (dose: 50.0 mg/kg/injection, schedule: Q04DX003 (ip), vehicle: saline) 100 % of control; under setting [9], 113 % of control.

As to `Cc1ccc(NC(=O)OCCSC(=O)COc2ccc(Cl)cc2Cl)cc1`, the T/C runs as follows: under setting [1], 100 % of control; under setting [8], 100 % of control; under setting [2], 104 % of control.

With `CC(C)[CH2][Sn]([CH2]C(C)C)([CH2]C(C)C)[C](C)(C)C`, the T/C under setting [9] is 103 % of control, the T/C under setting [10] was 112 % of control and the T/C under setting [11] was 112 % of control.

As for `C=CCCCCCCCCC(=O)N(C)OC`, the T/C is, setting by setting: (dose: 25.0 mg/kg/injection, schedule: Q01DX001 (ip), vehicle: saline with Tween-80) 95 % of control; (dose: 50.0 mg/kg/injection, schedule: Q01DX001 (ip), vehicle: saline with Tween-80) 109 % of control; under setting [6], 118 % of control.

Turning to `c1ccc(C2CCCCCC2)cc1`, the T/C was 110 % of control (dose: 100.0 mg/kg/injection, schedule: Q01DX009 (ip), vehicle: saline); 100 % of control under setting [9]; 110 % of control (dose: 166.0 mg/kg/injection, schedule: Q01DX009 (ip), vehicle: saline); 105 % of control (dose: 200.0 mg/kg/injection, schedule: Q01DX009 (ip), vehicle: saline); 90 % of control under setting [10]; 100 % of control under setting [11].
